In US20050233963A1 (priority 2000, published 2005):

Columns and labels:
SN hantavirus = assay type: cell-based, Sin Nombre virus
hsc70 [1] = molecular target: T1, hsc70 (Bos taurus, UniProt P19120); assay: UBP far-western analysis on hsc70; assay type: binding; parameters: purchased Stressgen; conditions: GST fusions as probe
Source text: (§1) FIG. 13A: Thirty μg of HeLa cell lysate was separated by SDS-PAGE in three identical lanes, blotted to nitrocellulose and probed with either, no probe (none), GST alone, or GST-UBP. The far-western blot was then developed with anti-GST antibody to reveal bands which interact with UBP. The arrow to the right indicates a 70 kD band detected by the GST-UBP fusion. The numbers to the left of each blot represent molecular weights in kilodaltons. […] FIG. 13C, Samples from the GST-UBP pull down assay were analyzed by western blot for the presence hsc70. At the bottom of the gel, the contents of each reaction are indicated by the plus symbols. The NaCl concentration of the washing buffer (100, 200, 300, and 500 mM) is indicated at the top of each lane. The arrow to the right of the blot indicates the position of the hsc70 band.
The term “hsc70” is used when referring to both hsp70 and its nearly identical constitutive counterpart, hsc70. […] The numbers to the left of the blots indicate the molecular weights in kilodaltons. The diagram below the blots indicates regions of UBP contained in each fusion construct. The column to the right summarizes the results, where a plus symbol indicates binding and a minus symbol indicates no binding.
Western blots were performed using standard techniques. […]

hsp90 = assay: UBP far-western analysis on hsp90; assay type: binding; conditions: purified hsp90
Experimental: The numbers to the left of the blots indicate the molecular weights in kilodaltons. The regions of UBP contained in each fusion construct are diagrammed below the blots. The right column summarizes the results: a plus symbol indicates binding and a minus symbol indicates no binding.
Western blots were performed using standard techniques. Briefly, 30 μg HeLa cytoplasmic extract or 20 ng of hsc70, hsp70, or hsp90 were denatured in 1×SDS sample buffer. The samples were loaded on a 10% polyacrylamide gel. Separated protein was transferred to nitrocellulose membranes. The membranes were blocked in 5% dry milk protein in TBS (20 mM Tris [pH 7.4], 100 mM NaCl) for 45 min. […] Primary antibody, either anti-hsp70 or hsp90 monoclonal antibodies, or anti-UBP rabbit polyclonal antibody was incubated with the blots at appropriate concentrations (1:1000 dilutions for each) in 5% milk protein in TBS for 2 hours at 4° C. with gentle rocking. The membranes were washed with TBS for 10 minutes. Secondary antibody, either alkaline phosphatase conjugated goat anti-mouse IgG or alkaline phosphatase conjugated goat anti-rabbit IgG diluted at 1:5000 in 5% Milk in TBS, was incubated with the blots for 2 hours at 4° C. with gentle rocking. […]

hsc70 [2] = molecular target: T1, hsc70; assay: Refolding of heat-denatured luciferase by hsc70; conditions: 28 nM hsc70, 1 mM ATP, 0 to 100 minutes at 30° C.
hsc70 [3] = molecular target: T1, hsc70; assay: Hsc70 ATPase assay; assay type: biochemical; parameters: purchased Stressgen; conditions: 28 nM hsc70, 0-176 nM UBP, 1 hr at 30° C.
Experimental: ADP was separated from ATP by thin-layer chromatography and quantified using a phosphorimager. […] The data are represented as the percent ATP hydrolysis and are plotted as a function of time from 0-75 minutes.
ATPase assays were performed essentially as described (Liberek et al., 1991, J. Biol. Chem. 266:14491-14496). […] The reactions were carried out at 30° C. in ATPase buffer (30 mM 4-(-2 hydroxymethl)-1-piperazineethanesulfonic acid (HEPES) buffer pH 7.5, 40 mM KCl, 50 mM NaCl, 5 mM MgCl2, and 2 mM dithiothreitol). […] A 5 μl aliquot of each reaction was directly loaded onto a polyethylamine-cellulose (PEI)-thin layer sheet (Selecto Scientific, Suwanee, Ga.). The products were separated from the substrate by chromatography using 1 M formic acid/1 M LiCl (1:1, vol/vol) as a vehicle. The location of ADP and ATP on the plates was visualized by use of a Phosphorimager (Molecular Dynamics, San Jose, Calif.). […] Five μl aliquots of each reaction were taken at time points of 0, 15, 30, 45, 60, 75 minutes. The samples were analyzed as previously described. Data were quantified and expressed as the percent ATP hydrolysis.

HIV-1 = conditions: overexpression in virus-producing cells (Callahan et al., 1998); cited from earlier work
hsc70 [4] = molecular target: T1, hsc70; assay: GST-UBP/hsc70 pull down assay with NaCl washes; assay type: binding; parameters: purchased Stressgen; conditions: washes of increasing NaCl, up to 0.5 M NaCl
Source text: as §1
Either GST or GST-UBP protein was incubated with a 100 μl bed volume of beads in a total volume of 300 μl of binding buffer at 4° C. with gentle rocking for 2 hours. The beads were washed and then blocked with 5% BSA in binding buffers. The beads were washed in binding buffer then incubated with 200 ng of hsc70 in binding buffer for 2 hours at 4° C. […] The samples were heated to 80° C. for 3 minutes then supernatants recovered by centrifugation were analyzed by western blot for hsc70.

T1 sequence (P19120 2-650 limits assumed): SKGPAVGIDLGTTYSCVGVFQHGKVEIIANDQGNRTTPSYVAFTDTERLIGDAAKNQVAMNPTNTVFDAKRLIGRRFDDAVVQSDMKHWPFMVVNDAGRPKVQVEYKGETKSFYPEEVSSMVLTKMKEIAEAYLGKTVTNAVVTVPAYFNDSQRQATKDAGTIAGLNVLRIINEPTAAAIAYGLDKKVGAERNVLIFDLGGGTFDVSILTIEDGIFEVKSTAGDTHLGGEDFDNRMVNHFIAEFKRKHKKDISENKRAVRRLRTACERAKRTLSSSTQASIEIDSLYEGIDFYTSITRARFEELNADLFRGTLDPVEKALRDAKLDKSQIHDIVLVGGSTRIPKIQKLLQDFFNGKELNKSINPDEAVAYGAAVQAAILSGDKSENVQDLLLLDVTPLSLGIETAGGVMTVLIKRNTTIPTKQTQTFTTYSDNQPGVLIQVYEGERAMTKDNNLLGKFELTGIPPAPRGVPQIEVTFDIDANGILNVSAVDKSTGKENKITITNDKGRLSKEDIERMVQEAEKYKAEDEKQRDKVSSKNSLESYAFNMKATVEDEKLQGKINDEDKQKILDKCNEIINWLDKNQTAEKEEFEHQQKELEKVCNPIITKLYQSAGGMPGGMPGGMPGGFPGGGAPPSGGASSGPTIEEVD

Compound | inhibition of viral RNA titers (SN hantavirus) | viral RNA titers after heat shock (SN hantavirus) | interaction with hsc70 (hsc70 [1]) | association with hsp90 (hsp90) | inhibition of hs70-dependent refolding of luciferase (hsc70 [2]) | hsc70-mediated hydrolysis of ATP (hsc70 [3]) | HIV-1 virion release (HIV-1) | stability of UBP-hs70 interaction to NaCl washes (hsc70 [4])
O=c1c(O)c(-c2ccc(O)c(O)c2)oc2cc(O)cc(O)c12 [quercetin] | 7.3 fold | did not have increased levels of viral RNA titers |  |  |  |  |  | 
UBP: Viral protein U (Vpu) binding protein, cellular tetratricopeptide repeat (TPR) co-chaperone family member |  |  | does stably associate | could associate | about 30% | negatively affected | significant reduction | maintained even in the presence of relatively high salt concentrations
